We go through two compounds from US11944601B2, “Applications of ellagic acid in preparation of immunomodulatory medicines for treatment of neuromyelitis optica or immune rejection after skin transplantation” (priority 2022, dated 2024).

One test has as its system Th17 cells. As to the kind of experiment: Th17 polarization of spleen cells in vitro, flow cytometry. The note with it: for polarization of Th17 cells: 3 days; for polarization of Th17 cells / Th1 cells (IFN-γ): flow cytometry; for inhibitory effect on Th17 / IL17 at 5 μM compared with the lower concentration: 5 μM vs 2.5 μM (EA) or 1 μM (URA). The test is classed as cell-based, mice. As for the experimental part: (§1) Single-cell suspension of spleen isolated from normal female C57BL/6 mice (aged 8-10 weeks) was co-cultured with anti-CD3 (0.5 μg/mL), anti-CD28 (1 μg/mL), TGF-β (2 ng/mL), IL-6 (20 ng/mL), IL-1 β (10 ng/mL), anti-IL-4 (10 μg/mL) and anti-IFN-γ (10 μg/mL) for 3 days to induce differentiation into Th17 cells. Cells were cultured with anti-CD3 (0.5 μg/mL), anti-CD28 (1 μg/mL), TGF-β (2 ng/mL) and IL-2 (10 ng/ml) for 3 days to induce differentiation into Treg cells. Cytokines were detected by flow cytometry.

The subject of test [1] is IL-17 family-related genes. As to the kind of experiment: RT-qPCR of Th17-related genes in naïve CD4+ T cells under Th17 polarizing conditions. It counts as cell-based, mice. The following applies: 4 h, vs PBS. On the procedure: Total RNA was extracted by using RNAprep Pure Cell/Tissue Kit (TIANGEN) and then reverse transcribed with Hiscript QRT Supermix (Vazyme) according to the manufacturer's instructions. mRNA expression was determined by real-time quantitative PCR using 2×ChamQ™ SYBR® qPCR Master Mix (Vazyme). Data was quantitatively analyzed on Roche Molecular Biochemicals Light Cycler Software Version 3.5. Mouse GAPDH gene was used as endogenous control for sample normalization.
For orientation: In qPCR the cycle at which signal appears reflects the starting amount.

The test system of test [2] is EAE mice. Kind of test: EAE mice, clinical scores. The note with it: for EAE clinical score / course of disease: administered from day 0 of immunization (prevention stage); for EAE clinical score / course of disease / EAE clinical score / development of EAE: EA intraperitoneally, URA 25 mg/kg. It counts as in vivo.
Test [3] has as its system EAE mice. Kind of test: EAE mice, spinal cord pathological sections (H&E, LFB, MBP staining). It counts as in vivo. The note with it: for demyelination of white matter of spinal cord (LFB) / infiltration of spinal cord inflammatory cells (H&E): day 20 p.i., EA lumbosacral, URA cervical enlargement of spinal cord.
Another test has as its system Treg cells. Kind of test: Treg polarization in vitro, flow cytometry. It counts as cell-based, mice. The following applies: 0.5-2 μM, 3 days. On the procedure:
as §1

For test [4], the system named is EAE mice. Kind of test: EAE mice, CNS-infiltrating mononuclear cells by flow cytometry. It counts as in vivo. As for the experimental part:
EAE mice were randomly divided into EA groups and URA groups. EA groups were divided into blank control group, fingolimod (FTY-720) positive control group (0.1 mg/kg) and EA administration group (0.1 mg/kg). URA groups were divided into blank control group and URA administration group (25 mg/kg). To induce EAE, mice were immunized at two sites on the back with 200 μg of myelin oligodendrocyte glycoprotein peptide 35-55 (MOG35-55) (Genescript) in 200 μL of emulsion containing 50% complete Freund's adjuvant with 5 mg/ml Mycobacterium tuberculosis H37Ra (Difco). All mice were i.p. injected with 200 ng pertussis toxin (Sigma-Aldrich) in PBS on days 0 and 2 postimmunization (p.i.). Ellagic acid (EA) and its metabolic derivative URA were purchased from Ark Pharm, Inc and respectively administered to EAE mice on the day of immunization, the 11th day p.i and the 17th day p.i.
Mice were sacrificed at day 20 p.i. Approximately 0.5 cm of the lumbosacral enlarged spinal cord was removed from the sacrificed mouse and fixed in 4% (w/v) paraformaldehyde. […]
For flow cytometry surface marker staining, the cells were incubated with surface-stained fluorescent microsphere-coupled antibodies or isotype control antibodies on ice for 30 min. […] Data were further detected by flow cytometry and analyzed by Flowjo software (Treestar, Ashland, OR).
On the technique in general: In flow cytometry, cells or beads pass a laser one at a time.

Another test deals with colitis mice. Kind of test: DSS-induced acute colitis in mice. The test is classed as in vivo. The following applies: 100 mg/kg/d, 2.5% DSS 7 days. As for the experimental part:
The mice were randomly divided into control group and EA treatment group. 2.5% (w/v) of dextran sodium sulfate (DSS) was added to drinking water continuously for 7 days to induce acute colitis, and mice in the treatment group were fed 100 mg/kg/d EA. During the experiment, mice were weighed regularly every day and the percentage change was calculated. In addition, the feces characteristics of mice were observed every day and divided into three grades according to the methods of Berberat et al. 1: normal, 2: increased stool viscosity and easily dispersed, 3: watery diarrhea. Moreover, hidden blood of mouse feces was measured by pyramidon method. If the mouse feces contained reddish-brown or bright red blood visible to the naked eye, it was determined as fecal blood. Finally, the disease activity index (DAI) of mice was calculated according to the scoring criteria of Berberat et al. The whole segment of colon from anus to the end of cecum of mice was taken, the length was measured and photographed for recording.

Test [5] concerns skin transplantation model. As to the kind of experiment: Skin transplantation model, H&E staining of skin grafts. The test is classed as in vivo. The note with it: BALB/c skin on C57BL/6 mice.
Test [6] has as its system Th1, Th17 and Treg cells in the peripheral immune system. Kind of test: Skin transplantation model, spleen cells of receptor mice by flow cytometry. The test is classed as in vivo. The note with it: day 7, cultured 72 hours. On the procedure: (§2) The donor BALB/c mice were sacrificed, the dorsal hair was removed with a shaver. Appropriately sized skin grafts were cut, peeled off, washed, immersed in sterilized saline containing antibiotics for 5 minutes, and finally stored on ice for backup. The receptor C57BL/6 mice were intraperitoneally injected with 0.5% of pentobarbital sodium injection according to the body weight of 0.15 mL/20 g. After the mice were anesthetized, they were fixed on a surgical plate, the mid-dorsal parts of the mice body slightly to the lefts were selected as operation areas. Mice were shaved and disinfected with 75% alcohol to prepare graft beds. The prepared donor skin sheet was placed on the predetermined transplantation bed of recipient mice and then flattened. The skin patch was sutured to the transplant bed by discontinuous suture with 6-0 sutures. The recipient mice were administered therapeutic medicines from the day of surgery. […] The spleens of the receptor mice were taken on the 7th day to isolate single cells for flow cytometer detection. The supernatant of splenocytes was collected for enzyme-linked immunosorbent assay (ELISA).

The next test has as its system IFN-γ and IL-17. As to the kind of experiment: Skin transplantation model, ELISA of splenocyte culture supernatant. It counts as in vivo, mice. As for the experimental part: as §2
(An ELISA detects its analyte on a solid surface through an enzyme-linked reagent.)

The subject of test [7] is NMO-IgG induced cerebral lesion in mice. As to the kind of experiment: NMO-IgG induced cerebral lesion in mice, AQP4 and MBP staining of brain slices. The test is classed as in vivo. The note with it: 2 mg/kg/d from three days before surgery; fifth day of modeling. From the text:
Female C57BL/6 mice aged 6-8 weeks were purchased from Air Force Military Medical University (Xi'an, China). Mice were fed under standard light and temperature conditions. All experimental procedures and protocols were approved by the institutional animal ethics Committee of Shaanxi Normal University and carried out in accordance with the approved institutional guidelines and regulations.
WO mice were randomly divided into control group and EA group. In order to induce WO, mice were first anesthetized with 10% (w/v) of chloral hydrate and installed on a brain stereotactic apparatus (RWD Life Science), then the mouse scalp was cut along the midline, a small hole with a diameter of 1 mm was drilled on the skull 2 mm on the right side of the anterior fontanelle, and finally 5 μL microinjector (Hamilton) was inserted 3 mm deep and 2 μL of NMO-IgG and 3 μL of complement were injected at a rate of 1 μL/min. EA (2 mg/kg/d) and control solvents were administered to WO mice three days before surgery.
The mice were sacrificed on the fifth day of modeling. The brain tissue was removed from the mice and fixed in 4% (w/v) of paraformaldehyde. The frozen sections were stained with AQP4 and MBP.

Where [8] appears, read: administered from onset stage (day 11 p.i.).
The mark [9] stands for this setting: administered from peak period (day 17 p.i.).

Molecules are shown by their SMILES.

In the case of `O=c1oc2cc(O)ccc2c2ccc(O)cc12` [URA, urolithin A], in the test on Th17 cells (1 μM and 5 μM), the “dose dependence of inhibition on IFN-γ” value was “no dose-dependent inhibition”. In addition, in the test with Th17 cells (1 μM), the “polarization of Th17 cells” value is given as “significantly inhibited” and the “Th1 cells (IFN-γ)” value is “significantly inhibited”. In addition, the “inhibitory effect on Th17 / IL17 at 5 μM compared with the lower concentration” value in the test with Th17 cells is given as “more significantly”. In the test on Th17 cells (5 μM), the “polarization of Th17 cells” value is “significantly inhibited” and the “Th1 cells (IFN-γ)” value is “significantly inhibited”. In addition, in [1], the “expression level of IL-17 family-related genes” value is given as “decreased” and the “expression of Foxp3” value was “promoted the expression of Foxp3 to a certain extent”. Besides, the “EAE clinical score / course of disease” value in the test on EAE mice [2] was “reduced the clinical scores”. Also, the “EAE clinical score / development of EAE” value in the test with EAE mice [2] (setting [8]) is “reduced the clinical scores”. Also, the “EAE clinical score / development of EAE” value in the test with EAE mice [2] (setting [9]) is recorded as “reduced the clinical scores”. Besides, the “proportion of intact myelin sheath in the spinal cord (MBP)” value with EAE mice [3] (compared with control mice) is listed as “significantly increased”. In the test on EAE mice [3], the “demyelination of white matter of spinal cord (LFB)” value is on record as “significantly relieved” and the “infiltration of spinal cord inflammatory cells (H&E)” value is recorded as “significantly relieved”.

As for `O=c1oc2c(O)c(O)cc3c(=O)oc4c(O)c(O)cc1c4c23` [EA, ellagic acid], the “polarization of Th17 cells” value in the test with Th17 cells (2.5 μM) is “significantly inhibited”. Besides, in the test on Th17 cells, the “inhibitory effect on Th17 / IL17 at 5 μM compared with the lower concentration” value was “better”. The “polarization of Th17 cells” value with Th17 cells (5 μM) is on record as “significantly inhibited”. The “polarization of naïve CD4+T towards Treg” value in the test on Treg cells was “promote the polarization of naïve CD4+T towards Treg in a dose-dependent manner”. For the same compound, the “therapeutic effect in EAE compared with fingolimod (FTY-720)” value in the test on EAE mice [2] (EA 0.1 mg/kg vs FTY-720 0.1 mg/kg) is reported as “equivalent”. The “EAE clinical score / course of disease” value with EAE mice [2] was “inhibited the course of disease”. The “EAE clinical score / development of EAE” value in the test with EAE mice [2] (setting [8]) is reported as “significantly inhibited”. Further, in the test with EAE mice [2] (setting [9]), the “EAE clinical score / development of EAE” value is “significantly inhibited”. In addition, the “progress of EAE disease” value with EAE mice [2] (oral administration from day 0 of immunization, dosage 250 times that of injection) is listed as “effectively alleviate the progress of the disease”. For the same compound, in the test on EAE mice [3], the “demyelination of white matter of spinal cord (LFB)” value is “significantly attenuated” and the “infiltration of spinal cord inflammatory cells (H&E)” value is listed as “significantly attenuated”. In addition, in the test with EAE mice [4], the “absolute number of CD45+, CD45+CD4+, CD4+IL-17+, CD4+IFN-γ+ and CD4+GM-CSF+ cells infiltrating into the CNS” value is “significantly reduced”; the “absolute number of pro-inflammatory microglia and macrophages infiltrating into CNS (CD45high+CD11b+, CD45low+CD11b+, CD11b+MHC II+, CD11b+TNF-α+, CD11b+Nos2+)” value is “decreased”. For the same compound, in the test with colitis mice, the colon length result is “significantly restored”. Further, in the test on colitis mice (vs DSS control group), the DAI score entry is “decreased significantly” and the “percentage of weight loss” value was “significantly lower”. Also, in test [5], the “infiltration of inflammatory cells in the grafted skin” value is on record as “significantly inhibited”. Further, in test [6], the Th1 inflammatory cells entry is given as “significantly inhibited”, the Th17 inflammatory cells result is “significantly inhibited” and the “proportion of anti-inflammatory cell Treg” value was “increased”. In the test on IFN-γ and IL-17, the “content of IFN-γ in supernatant of splenocytes” value is “significantly reduced”; the “content of IL-17 in supernatant of splenocytes” value was “significantly reduced”; the “effect on IFN-γ and IL-17 content compared with CsA” value is listed as “better than that of CsA”. For the same compound, in [7], the “AQP4 protein loss rate” value is reported as “lower than that in control group” and the “degree of demyelination (MBP)” value was “decreased”.
